Reference: patent US20140120083A1, “TREATMENT OF CANCERS USING PI3 KINASE ISOFORM MODULATORS” (INFINITY PHARMACEUTICALS, INC., priority 2012, published 2014)
“Also recorded” adds a separate entry of the source. Where two headings read alike, the source gives them in different places.

Columns and labels:
[1] = Clinical study in healthy adult subjects, safety
central nervous system = test: Neurofunctional study (FOB, motor activity); details: male rats
[2] = system: hemodynamic and electrocardiographic parameters; test: Cardiovascular telemetry study; format: in vivo, cynomolgus monkey; details: male monkeys
Text: Four non-naive, male monkeys implanted with radiotelemetry transmitters were utilized during the conduct of this study.

[3] = In vitro genetic toxicity studies
[4] = Tissue distribution of radiolabelled compound; format: in vivo; details: rat, radiolabelled Compound 292, majority of tissues
PI3K δ = PI3K δ (Homo sapiens, UniProt O00329); test: Clinical study in healthy subjects, basophil activation (CD63 on CCR3+ basophils, ex vivo anti-FcεR1); design: from tissue; host or cells: human whole blood (basophils)
[5] = Phase 1 study in advanced hematologic malignancies, pharmacokinetics; format: in vivo, human; details: patients
Experimental: PK and PD markers were evaluated after the first dose (e.g., 8 mg BID) and at steady state. PD activity (PI3K inhibition) in whole blood was evaluated using a basophil activation assay which measured reduction in CD63 expression on the surface of basophils following ex vivo stimulation.

Pharmacokinetics, rat = format: in vivo, Sprague-Dawley rats
human P-glycoprotein = target: T1, human P-glycoprotein (Homo sapiens, UniProt P08183); test: Interaction with P-glycoprotein, Caco-2; format: in vitro ADME; details: Caco-2 cell monolayers
T1 construct: endogenous in cells; host or cells: Caco-2

[6] = Single-dose toxicity study (MTD); details: monkey, in vivo, po
Pharmacokinetics, monkey = format: in vivo, Cynomolgus monkeys
[7] = Clinical study in healthy adult subjects, pharmacokinetics; format: in vivo, human; details: for AUC(0-24) / AUC(0-inf) / Cmax / T1/2 / half-life / AUC: mean (% CV); for AUC: read-out: AUC(0-tau)
[8] = multiple doses for 2 weeks (n=36)
[9] = Sprague-Dawley, in vivo, IV, 2 mg/kg
[10] = Sprague-Dawley, in vivo, PO, 10 mg/kg
[11] = DDI portion, 200 mg q12h ketoconazole
[12] = human, plasma, oral, 1 mg, 1 mg Q12 h, Day 1
[13] = human, plasma, oral, 1 mg, 1 mg Q12 h, Day 14
[14] = human, plasma, oral, 2 mg, 2 mg Q12 h, Day 1
[15] = human, plasma, oral, 2 mg, 2 mg Q12 h, Day 14
[16] = human, plasma, oral, 5 mg, 5 mg Q12 h, Day 1
[17] = human, plasma, oral, 5 mg, 5 mg Q12 h, Day 14
[18] = human, plasma, oral, 10 mg, 10 mg Q24 h, Day 1
[19] = human, plasma, oral, 10 mg, 10 mg Q24 h, Day 14

PI3K δ, sequence (O00329 whole entry): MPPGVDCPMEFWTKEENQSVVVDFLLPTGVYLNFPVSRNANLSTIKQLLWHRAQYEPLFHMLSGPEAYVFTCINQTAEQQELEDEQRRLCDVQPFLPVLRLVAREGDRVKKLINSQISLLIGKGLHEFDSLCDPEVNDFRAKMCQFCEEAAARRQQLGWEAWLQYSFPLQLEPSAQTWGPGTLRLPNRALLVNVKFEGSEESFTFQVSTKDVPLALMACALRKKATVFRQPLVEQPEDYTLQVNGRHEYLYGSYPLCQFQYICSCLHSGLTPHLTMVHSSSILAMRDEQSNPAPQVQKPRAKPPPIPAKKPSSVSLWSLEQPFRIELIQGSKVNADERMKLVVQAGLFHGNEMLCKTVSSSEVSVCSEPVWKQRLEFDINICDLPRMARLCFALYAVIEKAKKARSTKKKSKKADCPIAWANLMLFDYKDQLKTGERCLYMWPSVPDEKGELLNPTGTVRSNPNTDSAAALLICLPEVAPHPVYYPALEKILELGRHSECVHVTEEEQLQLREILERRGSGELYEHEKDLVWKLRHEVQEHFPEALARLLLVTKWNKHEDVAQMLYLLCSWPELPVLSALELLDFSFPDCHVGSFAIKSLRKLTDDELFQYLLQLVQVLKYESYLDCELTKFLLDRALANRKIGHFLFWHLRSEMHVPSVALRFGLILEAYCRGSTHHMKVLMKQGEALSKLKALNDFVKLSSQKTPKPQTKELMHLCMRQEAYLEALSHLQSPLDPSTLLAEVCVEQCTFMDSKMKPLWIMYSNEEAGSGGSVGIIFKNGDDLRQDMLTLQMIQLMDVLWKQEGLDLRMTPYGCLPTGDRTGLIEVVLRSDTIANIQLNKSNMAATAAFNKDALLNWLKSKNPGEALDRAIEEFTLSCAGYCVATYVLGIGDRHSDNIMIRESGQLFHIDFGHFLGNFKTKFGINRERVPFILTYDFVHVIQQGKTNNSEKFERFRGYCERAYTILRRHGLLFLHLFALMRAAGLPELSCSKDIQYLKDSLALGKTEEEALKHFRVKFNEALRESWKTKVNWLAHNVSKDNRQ
PI3K δ, sequence (P27986 whole entry partner): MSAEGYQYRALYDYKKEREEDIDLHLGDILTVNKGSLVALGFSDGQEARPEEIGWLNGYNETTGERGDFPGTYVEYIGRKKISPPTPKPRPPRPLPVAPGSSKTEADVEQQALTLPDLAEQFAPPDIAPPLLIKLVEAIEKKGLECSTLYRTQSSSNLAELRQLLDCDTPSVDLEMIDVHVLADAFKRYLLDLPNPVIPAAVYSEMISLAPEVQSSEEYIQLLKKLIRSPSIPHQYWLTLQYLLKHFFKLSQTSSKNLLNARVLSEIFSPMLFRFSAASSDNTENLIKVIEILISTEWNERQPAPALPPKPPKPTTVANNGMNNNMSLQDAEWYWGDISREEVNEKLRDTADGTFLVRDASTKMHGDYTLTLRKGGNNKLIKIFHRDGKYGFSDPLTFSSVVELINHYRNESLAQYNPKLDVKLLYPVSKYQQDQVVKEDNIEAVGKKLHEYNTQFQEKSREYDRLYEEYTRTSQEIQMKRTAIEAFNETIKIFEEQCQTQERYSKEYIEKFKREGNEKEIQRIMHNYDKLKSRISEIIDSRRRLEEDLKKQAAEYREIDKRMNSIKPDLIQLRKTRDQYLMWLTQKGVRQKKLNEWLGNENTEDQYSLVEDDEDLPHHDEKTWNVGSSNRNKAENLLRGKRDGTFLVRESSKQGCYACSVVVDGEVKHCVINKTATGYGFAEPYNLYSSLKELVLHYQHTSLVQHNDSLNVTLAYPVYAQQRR
T1 sequence (P08183 whole entry): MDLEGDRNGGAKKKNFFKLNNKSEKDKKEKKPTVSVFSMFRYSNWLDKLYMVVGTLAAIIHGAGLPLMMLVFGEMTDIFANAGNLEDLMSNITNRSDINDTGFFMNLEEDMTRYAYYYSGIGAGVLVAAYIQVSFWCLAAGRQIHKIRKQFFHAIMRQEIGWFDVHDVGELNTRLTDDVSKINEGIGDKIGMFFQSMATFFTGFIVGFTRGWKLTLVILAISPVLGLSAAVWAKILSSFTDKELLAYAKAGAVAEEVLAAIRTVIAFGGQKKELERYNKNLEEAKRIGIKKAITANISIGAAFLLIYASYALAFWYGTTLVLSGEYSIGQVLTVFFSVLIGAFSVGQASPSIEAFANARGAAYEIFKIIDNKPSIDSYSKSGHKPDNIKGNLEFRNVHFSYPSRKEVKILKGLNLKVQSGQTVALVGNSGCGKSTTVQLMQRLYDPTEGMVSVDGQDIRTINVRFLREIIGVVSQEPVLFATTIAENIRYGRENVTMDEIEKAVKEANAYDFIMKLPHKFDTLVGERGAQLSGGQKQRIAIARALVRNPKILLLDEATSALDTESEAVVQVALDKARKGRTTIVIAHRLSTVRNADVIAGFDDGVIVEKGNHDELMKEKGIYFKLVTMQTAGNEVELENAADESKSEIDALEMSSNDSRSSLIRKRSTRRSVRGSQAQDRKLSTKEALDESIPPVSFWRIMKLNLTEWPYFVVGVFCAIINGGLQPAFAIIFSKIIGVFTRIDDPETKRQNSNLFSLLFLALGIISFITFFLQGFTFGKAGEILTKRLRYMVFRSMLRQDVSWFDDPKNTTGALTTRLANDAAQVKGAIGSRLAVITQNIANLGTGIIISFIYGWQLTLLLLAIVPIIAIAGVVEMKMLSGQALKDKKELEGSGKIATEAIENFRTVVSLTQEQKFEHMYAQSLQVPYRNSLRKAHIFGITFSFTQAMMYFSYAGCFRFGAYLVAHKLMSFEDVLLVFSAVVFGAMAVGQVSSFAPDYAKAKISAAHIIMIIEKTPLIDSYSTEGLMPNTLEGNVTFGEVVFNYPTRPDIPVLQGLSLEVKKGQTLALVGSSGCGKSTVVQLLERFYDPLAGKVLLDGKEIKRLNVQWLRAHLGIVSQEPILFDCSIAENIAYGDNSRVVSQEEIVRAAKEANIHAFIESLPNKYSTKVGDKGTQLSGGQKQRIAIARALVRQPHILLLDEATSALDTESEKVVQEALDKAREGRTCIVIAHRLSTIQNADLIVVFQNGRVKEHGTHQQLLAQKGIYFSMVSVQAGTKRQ

Compound: C[C@H](Nc1ncnc2[nH]cnc12)c1cc2cccc(Cl)c2c(=O)n1-c1ccccc1 [Compound 292]
- IgE ([1]; healthy subjects): No increases
- deaths and serious adverse events ([1]; healthy subjects): no deaths and no serious adverse events
- safety laboratory or ECG abnormalities ([1]; healthy subjects): No clinically significant safety laboratory or electrocardiogram (ECG) abnormalities
- QTcF greater than 500 msec ([1]; healthy subjects, serial ECGs): No subject
- largest change from baseline in QTcF ([1]; healthy subjects, serial ECGs): 37 ms
- tolerability ([1]; healthy subjects, single doses up to 30 mg, up to 10 mg daily for 14 days): well tolerated; also recorded: well-tolerated
- headache [1, 8]: 8%
- myalgia [1, 8]: 6%
- nasopharyngitis [1, 8]: 6%
- locomotor activity (central nervous system; 2 h after a 350 mg/kg oral dose): Significant decreases
- effects on the central nervous system (central nervous system; dose levels≦50 mg/kg): No effects
- qualitative or quantitative FOB parameters (central nervous system; single oral dose up to 350 mg/kg, up to 24 h post-dose): no changes
- hemodynamic or electrocardiographic parameters ([2]; single oral dose of 5, 30, and 150 mg/kg): No Compound 292-related effects
- waveform abnormalities or arrhythmias ([2]; up to 150 mg/kg oral): no waveform abnormalities or arrhythmias
- genetic toxicity [3]: no genetic toxicity
- radioactivity in tissues at 24 hr [4]: without quantifiable levels of radioactivity
- basophil activation (CD63 expression on CCR3+ basophils) (PI3K δ; all single and multiple dose levels): dose-dependent reduction; also recorded: reduced in a dose-dependent manner
- dose at which maximal PD response was achieved (PI3K δ; single dose): 5 mg
- half-life ([5]; human, in vivo, oral, read-out: eliminating t1/2): 360 to 600 min
- doses with mean steady-state trough above levels sufficient for PI3K-δ inhibition [5]: > 15 mg BID
- plasma Cmax and AUC over the dose range ([5]; 8-50 mg BID): dose-proportional increases
- PK profile ([5]; through 50 mg BID): linear
- clearance (Pharmacokinetics, rat): low to moderate
- half-life (Pharmacokinetics, rat): less than 2 hrs
- volume of distribution (Pharmacokinetics, rat): high
- Foral (Pharmacokinetics, rat; PO, 10 mg/kg): 57%
- AUC(0-inf) (Pharmacokinetics, rat; [9]): 1160 ng·h/mL
- AUC(0-t) (Pharmacokinetics, rat; [9]): 1150 ng·h/mL
- Cmax (Pharmacokinetics, rat; [9]): 1520 ng/mL
- Tmax (Pharmacokinetics, rat; [9]): 4.98 min
- clearance (Pharmacokinetics, rat; Sprague-Dawley, in vivo, IV, 2 mg/kg, read-out: Cl (converted)): 30.5 mL/min/kg
- half-life (Pharmacokinetics, rat; Sprague-Dawley, in vivo, IV, 2 mg/kg, read-out: T1/2 (converted)): 43.8 min
- Vd (Pharmacokinetics, rat; Sprague-Dawley, in vivo, IV, 2 mg/kg, read-out: Vss): 1.66 L/kg
- AUC(0-inf) (Pharmacokinetics, rat; [10]): 3300 ng·h/mL
- AUC(0-t) (Pharmacokinetics, rat; [10]): 2930 ng·h/mL
- Cmax (Pharmacokinetics, rat; [10]): 785 ng/mL
- Tmax (Pharmacokinetics, rat; [10]): 72 min
- half-life (Pharmacokinetics, rat; Sprague-Dawley, in vivo, PO, 10 mg/kg, read-out: T1/2 (converted)): 144 min
- P-gp substrate (human P-glycoprotein): is a P-gp substrate
- inhibition of P-gp transport (human P-glycoprotein): has the potential to inhibit the active transport of other P-gp substrates
- MTD [6]: 500 mg/kg
- clearance (Pharmacokinetics, monkey; monkey): low to moderate
- volume of distribution (Pharmacokinetics, monkey; monkey): high
- AUC0-last (Pharmacokinetics, monkey; monkey, IV, 1 mg/kg): 2357 ng·h/mL
- AUC(0-inf) (Pharmacokinetics, monkey; monkey, IV, 1 mg/kg): 2379 ng·h/mL
- Cl (Pharmacokinetics, monkey; monkey, IV, 1 mg/kg): 0.43 L/h/kg
- Cmax (Pharmacokinetics, monkey; monkey, IV, 1 mg/kg): 1545 ng/mL
- T1/2 (Pharmacokinetics, monkey; monkey, IV, 1 mg/kg): 5.0 h
- Tmax (Pharmacokinetics, monkey; monkey, IV, 1 mg/kg): 4.98 min
- Vss (Pharmacokinetics, monkey; monkey, IV, 1 mg/kg): 1.27 L/kg
- AUC0-last (Pharmacokinetics, monkey; monkey, PO, 5 mg/kg): 4596 ng·h/mL
- AUC(0-inf) (Pharmacokinetics, monkey; monkey, PO, 5 mg/kg): 4685 ng·h/mL
- Cmax (Pharmacokinetics, monkey; monkey, PO, 5 mg/kg): 1327 ng/mL
- Foral (Pharmacokinetics, monkey; monkey, PO, 5 mg/kg): 40%
- T1/2 (Pharmacokinetics, monkey; monkey, PO, 5 mg/kg): 5.4 h
- Tmax (Pharmacokinetics, monkey; monkey, PO, 5 mg/kg): 90 min
- half-life (Pharmacokinetics, monkey; monkeys): 5 h
- AUC(0-24) ([7]; 1 mg single dose): 149 (67) ng * hr/mL
- AUC(0-inf) ([7]; 1 mg single dose): 151 (68) ng * hr/mL
- Cmax ([7]; 1 mg single dose): 43.4 (31) ng/mL
- T1/2 ([7]; 1 mg single dose): 3.52 (29) hr
- AUC(0-24) ([7]; 2 mg single dose): 289 (43) ng * hr/mL
- AUC(0-inf) ([7]; 2 mg single dose): 296 (44) ng * hr/mL
- Cmax ([7]; 2 mg single dose): 78.8 (16) ng/mL
- T1/2 ([7]; 2 mg single dose): 5.43 (25) hr
- AUC(0-24) ([7]; 5 mg single dose): 733 (5) ng * hr/mL
- AUC(0-inf) ([7]; 5 mg single dose): 743 (5) ng * hr/mL
- Cmax ([7]; 5 mg single dose): 246 (16) ng/mL
- T1/2 ([7]; 5 mg single dose): 5.43 (10) hr
- AUC(0-24) ([7]; 10 mg single dose): 891 (14) ng * hr/mL
- AUC(0-inf) ([7]; 10 mg single dose): 914 (14) ng * hr/mL
- Cmax ([7]; 10 mg single dose): 454 (40) ng/mL
- T1/2 ([7]; 10 mg single dose): 9.47 (38) hr
- AUC(0-24) ([7]; 20 mg single dose): 2193 (16) ng * hr/mL
- AUC(0-inf) ([7]; 20 mg single dose): 2250 (16) ng * hr/mL
- Cmax ([7]; 20 mg single dose): 997 (32) ng/mL
- T1/2 ([7]; 20 mg single dose): 7.79 (51) hr
- AUC(0-24) ([7]; 30 mg single dose): 3263 (38) ng * hr/mL
- AUC(0-inf) ([7]; 30 mg single dose): 3395 (38) ng * hr/mL
- Cmax ([7]; 30 mg single dose): 1140 (38) ng/mL
- T1/2 ([7]; 30 mg single dose): 8.12 (18) hr
- increase of AUC0-inf in the presence of ketoconazole [7, 11]: ~295%
- increase of AUC0-last in the presence of ketoconazole [7, 11]: ~285%
- increase of Cmax in the presence of ketoconazole [7, 11]: approximately 66%
- excretion of unchanged compound in urine ([7]; healthy subjects): < 2 % of the administered dose
- accumulation ([7]; healthy subjects, 14 days of Q12 h oral administration): less than 2 fold
- half-life [7, 12]: 208 min
- AUC [7, 12]: 124 ng·h/mL
- Cmax ([7]; human, plasma, oral, 1 mg, 1 mg Q12 h, Day 1, read-out: Cmax): 49.1 ng/mL
- half-life [7, 13]: 388 min
- AUC [7, 13]: 199 ng·h/mL
- Cmax ([7]; human, plasma, oral, 1 mg, 1 mg Q12 h, Day 14, read-out: Cmax): 66.8 ng/mL
- half-life [7, 14]: 380 min
- AUC [7, 14]: 290 ng·h/mL
- Cmax ([7]; human, plasma, oral, 2 mg, 2 mg Q12 h, Day 1, read-out: Cmax): 101 ng/mL
- half-life [7, 15]: 585 min
- AUC [7, 15]: 524 ng·h/mL
- Cmax ([7]; human, plasma, oral, 2 mg, 2 mg Q12 h, Day 14, read-out: Cmax): 140 ng/mL
- half-life [7, 16]: 346 min
- AUC [7, 16]: 774 ng·h/mL
- Cmax ([7]; human, plasma, oral, 5 mg, 5 mg Q12 h, Day 1, read-out: Cmax): 257 ng/mL
- half-life [7, 17]: 499 min
- AUC [7, 17]: 1290 ng·h/mL
- Cmax ([7]; human, plasma, oral, 5 mg, 5 mg Q12 h, Day 14, read-out: Cmax): 355 ng/mL
- half-life [7, 18]: 360 min
- AUC [7, 18]: 1530 ng·h/mL
- Cmax ([7]; human, plasma, oral, 10 mg, 10 mg Q24 h, Day 1, read-out: Cmax): 553 ng/mL
- half-life [7, 19]: 702 min
- AUC [7, 19]: 2230 ng·h/mL
- Cmax ([7]; human, plasma, oral, 10 mg, 10 mg Q24 h, Day 14, read-out: Cmax): 605 ng/mL
- AUC(0-t) ([7]; human, plasma, healthy subjects, 5 mg BID, 14 days of oral dosing, read-out: mean AUC0-24 hr): 2580 ng·h/mL
